From paper PMC2751816, “Functional, Non-Clonal IgM^a-Restricted B Cell Receptor Interactions with the HIV-1 Envelope gp41 Membrane Proximal External Region” (PLoS ONE, 2009)
“Also recorded” adds a separate entry of the source.

Assays:
[1] = system: surface Ig on BALB/c splenic B cells; test: Microscopy of BCR cap formation (co-capping); format: cell-based, mouse (BALB/c); details: anti-Ig stimulation, Fig. 4F
Procedure: Purified naïve splenic B cells were incubated on ice for 30 min with Alexa 488-labeled wheat germ agglutinin (Invitrogen) and 10 µg/ml R-PE-labeled goat anti-mouse IgM+IgG (H+L) F(ab)2 and APC-labeled gp41 MPER. After extensive washing, cells were stimulated for indicated times. Images were acquired with a Nikon TE2000-E2 inverted microscope employing a 40X magnification lens from a CoolSNAPPHQ2 monochrome camera.

[2] = system: splenic B cells, BALB/c congenic (CB17) (IgH^b); test: Flow cytometry: tetramer staining of splenic B cells from BALB/c congenic CB17 (IgH^b) mice; format: cell-based, mouse (CB17); details: BALB/c mice homozygous for Igh^b; Fig. 5
Procedure: (§1) N-biotinylated, linker/spacer-containing peptides used to make tetramers are detailed in Table S4 and Fig. 7A. Peptides were synthesized and purified using reverse-phase HPLC (Primm Biotechnology). To produce tetramerized forms of each peptides, 200 µM peptide and 6 µM APC-labeled streptavadin (SA) were combined at equal volumes, and mixtures were incubated at 4°C for 4 h. Unbound peptide was removed from peptide-APC complexes by centrifugal filtration using an Amicon Centriprep YM30 column (Millipore Corporation). Purified tetramer preparations were determined using the Micro BSA protein assay kit (Pierce Biotechnology).
Female C57BL/6, BALB/c, B6Igh^a, and CB17 (BALBc Igh^b) inbred mouse strains (8–12 wks of age) were purchased from Charles River Laboratories. All mice were housed in the Duke University Animal Facility in a pathogen-free environment with 12 h light/dark cycles at 20–25°C under AALAC guidelines and in accordance with all Institutional Animal Care and Use Committee and Duke University Institutional Biosafety Committee-approved animal protocols. […]
FACS staining of single cell suspensions (≥2×10^6) was conducted using pre-mixed combinations of fluorochrome-labeled Abs and APC-conjugated B cell tetramers at empirically-determined optimal concentrations. […]

[3] = system: protein tyrosine phosphorylation in BALB/c splenic B cells; test: Phosphotyrosine immunoblot of stimulated splenic B cells; format: cell-based, mouse (BALB/c); details: saturating tetramer 20 µg/10^6 cells, Fig. 8A
Procedure: To determine if gp41 MPER interactions with IgM^a could elicit the activating signals required for biological responses, we assessed BCR-proximal signaling events in BALB/c splenic B cells ligated with gp41 MPER tetramers. First, we determined the induction of protein tyrosine phosphorylation in cells incubated with saturating concentrations (20 µg/10^6 cells; see Fig. 1b) of gp41 MPER tetramer (Fig. 8A).
5×10^6 splenic BALB/c B cells were isolated by negative depletion of CD43-expressing cells with anti-mouse CD43 MACS beads (Miltenyi Biotech) to >95% purity, as assessed by flow cytometry. Purified B cells were equilibrated to 37°C in a humidified incubator and stimulated with gp41 MPER tetramers or F(ab)'2 anti-IgM (Jackson ImmunoResearch) in 5% FBS-containing DMEM media for various times. Whole cell extracts were made by lysing cell pellets in 1% NP-40 lysis buffer supplemented with PhosSTOP and complete, mini EDTA-free protease inhibitor tablets (Roche) and insoluble cellular debris was removed by centrifugation. Extracts were fractionated by reducing SDS PAGE on Novex Bis-Tris Mini gels (Invitrogen) and transferred to Invitrolon PVDF membranes (Invitrogen) using the Xcell II blot module. Primary Abs used were anti-phosphotyrosine clone 4G10 (Upstate) and anti-GAPDH (Millipore). Secondary Abs used were goat-anti-mouse IgG1 or IgG2a, both coupled to HRP (Jackson ImmunoResearch). […]

[4] = system: phosphorylated Erk in BALB/c splenic B cells; test: Intracellular FACS of phosphorylated Erk1/2; format: cell-based, mouse (BALB/c); details: naïve BALB/c splenocytes; gated on ligated B cells; Fig. 8B
Procedure: Splenocyte suspensions were incubated at 37°C for various times with either APC-labeled F(ab)'2 anti-IgM (Jackson ImmunoResearch) or APC-labeled gp41 MPER tetramers. Stimulations were stopped by the addition of PhosFlow Lyse/Fix buffer (BD) and incubation for 10 min at 37°C. Cells were stained with B220-FITC prior to permeabilization with PhosFlow Perm Buffer III (BD). Permeabilized cells were stained with a PE-labeled Ab to Erk1 and Erk2 (BD), according to the manufacturer's instructions. Cells were fixed with 2% paraformaldehyde, and all data were collected and analyzed as done for standard flow cytometry.

[5] = system: BALB/c B cells (gp41 MPER tetramer binding); test: Cold inhibition of APC-labeled gp41 MPER tetramer binding by unlabeled tetramers; format: cell-based, mouse (BALB/c)
Procedure: (§2) FACS staining of single cell suspensions (≥2×10^6) was conducted using pre-mixed combinations of fluorochrome-labeled Abs and APC-conjugated B cell tetramers at empirically-determined optimal concentrations. All Abs were from BD unless otherwise stated. Primary antibodies used were: PerCP anti-B220, FITC anti-IgD, FITC, PE or PE-Cy7 anti-IgM, PE anti-CD5, FITC anti-CD11b, PE-Cy7 anti-CD19, FITC anti-CD21, PE-Cy7 anti-CD23 (eBiosciences), and PE-Cy7 anti-CD93 (eBiosciences). Other reagents included biotinylated Abs against dump channel markers: Thy1 (Abcam), F4/80 (Abcam), CD11c, Gr-1, TER-119, and NK-1.1, secondary staining SA-Texas Red conjugate; v-amine live/dead violet dye (Molecular Probes), and Fc block (anti-CD16/32).
(§3) Staining was conducted at 4°C in several sequential steps in FACS staining buffer (1X PBS with 2% FCS, 0.1% NaN3), washing twice between steps. Cells were first incubated with v-amine live/dead dye for 15 min, then stained with APC-labeled tetramers for 30 min (and in some experiments, cold tetramer was incubated at 10 fold molar excess for 1 h, prior to staining with APC-labeled tetramers). Cells were then stained with Fc block, followed by incubation with combinations of primary Abs, and secondary staining with SA-Texas Red, each for 30 min. Data (≥2.5×10^5 events/sample) were acquired using an LSRII flow cytometer and Cell Quest software (BD Immunocytometry systems). FACS Analysis was performed using FlowJo software (Tree Star). For analysis, cells were gated in the following order: single cells were gated based on fsc height vs. fsc area+ssc height vs. ssc profiles, lymphocytes were gated on fsc and ssc profile, residual dead cells were excluded by negative gating with v-amine live/dead dye, and irrelevant non-B cells were excluded by negative gating with dump markers.

[6] = system: naïve splenic C57BL/6 B cells; test: Flow cytometry: APC-labeled tetramer staining of C57BL/6 splenic B cells; format: cell-based, mouse (C57BL/6)
Procedure: as §1, §2
as §3, with “For analysis, cells were gated in the following order: single cells were gated based on fsc height vs. fsc area+ssc height vs. ssc profiles, lymphocytes were gated on fsc and ssc profile, residual dead cells were excluded by negative gating with v-amine live/dead dye, and irrelevant non-B cells were excluded by negative gating with dump markers.” left out

QQEKNEQELLELDKWASLWN [gp41 MPER tetramer, (residues 659–678 of the HIV-1 envelope)]
co-capping with surface Ig (in words) [1]: co-capped with surface Ig in BALB/c splenic B cells
gp41 MPER binding in congenic mice (in words) [2]: lost gp41 MPER binding
protein tyrosine phosphorylation relative to anti-IgM ligation ([3]; lower than anti-IgM ligation of equal numbers of B cells): 2- to 3 fold
protein tyrosine phosphorylation (in words) ([3]; listed as gp41 MPER tetramers): induced rapid and reproducible patterns of protein phosphorylation; also recorded: only selected proteins were phosphorylated, including Syk, PI3K p110δ, PLC-γ2, and one or more of the Src kinase family members Lyn, Fyn, or Blk
Erk phosphorylation (in words) [4]: detectable, but dampened induction of phosphorylated Erk; also recorded: peak gp41 MPER-induced Erk phosphorylation persisted at 30 min; also recorded: the entire population of gp41 MPER-gated B cells showed modest Erk activation
inhibition of APC-labeled gp41 MPER tetramer binding ([5]; pre-incubation with unlabeled competitor at 10-fold molar excess, 100 ng/10^6 splenocytes): > 90%
inhibition of APC-labeled gp41 MPER tetramer binding (in words) ([5]; unlabeled competitor tetramer pre-incubated, Fig. 4A,B, average of three experiments (4B)): Dose-dependent inhibition of APC-labeled gp41 MPER peptide binding was observed
MFI binding pattern (in words) ([6]; C57BL/6 B cells, Fig. 1A, 1C): gp41 MPER-reactive C57BL/6 B cells scattered further out across the APC channel
gp41 MPER reactivity among B cell subsets (in words) ([6]; C57BL/6 MZ and B1a B cells, Table S2): did not reveal increased levels of MPER binding by MZ and B1a B cells
percentage of tetramer-reactive B cells ([6]; total splenic B cells (CD19^+), naïve C57BL/6, APC tetramer 100 ng/10^6 splenocytes, above background without tetramer, Fig. 1A representative histogram): 0.1–0.3%
